# Patent publication US20140357713A1, “ANTIMICROBIAL COMPOUNDS AND METHODS OF USE” (NexMed Holdings, Inc., priority 2012, published 2014)
# Read-outs that look alike come from different tables or passages of the source.
# Columns and labels:
# [1] = system: Aspergillus niger (CMCC 98003); assay: Minimum inhibitory concentration (MIC) assay, Example 33; type: cell-based; details: Aspergillus niger
# How it was run: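 Broth microdilution MIC per CLSI guidelines in RPMI 1640 with serial 2-fold compound dilutions. Spore suspension from sporulating colonies adjusted to OD530 0.09-0.13, diluted 1:50 as 2× inoculum and added 1:2 to drug wells; plates incubated at 35 °C and MIC read per CLSI.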
# pH (Table 1) = type: physicochemical
# [2] = system: Staphulococcus aureus (ATCC 29213); assay: Minimum inhibitory concentration (MIC) assay, Example 33; type: cell-based, Staphylococcus aureus; details: Staphylococcus aureus
# How it was run: (§1)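 Broth microdilution per CLSI guidelines in CAMHB, with 2-fold serial compound dilutions. Inoculum was set to a 0.5 McFarland standard, diluted 1:100 to twice the test density, then mixed 1:2 with drug. Plates were incubated at 35° C and the MIC read per CLSI.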
# [3] = system: Escherichia coli (ATCC 25922); assay: Time kill study, Example 33 (0 to 5 min); type: cell-based; details: 1×MIC
# How it was run: (§2)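 Per CLSI guidelines, strain suspensions were mixed 1:1 by volume with compound solution; samples taken at 0 min, 30 sec, 1 min and 5 min were diluted and plated on agar. Colonies were counted after 24 to 48 hrs incubation and viable counts reported as Log10 CFU/mL.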
# [4] = system: Pseudomonas aeruginosa (ATCC 27853); assay: Time kill study, Example 33 (0 to 5 min); type: cell-based; details: 1×MIC
# How it was run: as §2
# [5] = system: Staphylococcus aureus (ATCC 29213); assay: Time kill study, Example 33 (0 to 5 min); type: cell-based; details: 1×MIC
# How it was run: as §2
# [6] = system: Escherichia coli (ATCC 25922); assay: Minimum inhibitory concentration (MIC) assay, Example 33; type: cell-based; details: Escherichia coli
# How it was run: as §1
# [7] = system: Pseudomonas aeruginosa (ATCC 27853); assay: as above; type: cell-based; details: Pseudomonas aeruginosa
# How it was run: as §1
# [8] = system: Candida albicans (ATCC 90029); assay: as above; type: cell-based; details: Candida albicans
# How it was run: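 Broth microdilution per CLSI guidelines in RPMI 1640; inoculum set to OD530 0.08–0.13, diluted 1:50 then 1:20 to 2× strength and mixed 1:2 with 2-fold serial compound dilutions. Incubated at 35° C; MIC read per CLSI.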
# [9] = Solubility (Sol., Table 1); type: physicochemical
structure (smiles),measurement,setting,value
"CCCCCCCCCCCC(C)(C)OC(=O)C(C)N(C)C.Cl (stereo not drawn) [Nex-65, 2-Methyltridecan-2-yl 2-(dimethylamino)propanoate hydrochloride]",MIC,"[1]; CMCC98003, Table 19 summary, read-out: MIC",> 12500 µg/mL
same,MIC,"[1]; CMCC98003, n = 1, read-out: MIC Aspergillus niger",> 12500 µg/mL
same,MIC,"[1]; CMCC98003, n = 2, read-out: MIC Aspergillus niger",> 12500 µg/mL
same,pH,pH (Table 1),1.66
same,MIC,"[2]; ATCC29213, Table 19 summary, read-out: MIC",3130 µg/mL
same,MIC,"[2]; ATCC29213, n = 1, read-out: MIC S. aureus",3130 µg/mL
same,MIC,"[2]; ATCC29213, n = 2, read-out: MIC S. aureus",3130 µg/mL
same,"Viable counts, Escherichia coli time kill study",[3]; 0.5 min,5.72 Log10 CFU/mL
same,"Viable counts, Escherichia coli time kill study",[3]; 1 min,5.97 Log10 CFU/mL
same,"Viable counts, Escherichia coli time kill study",[3]; 5 min,4.22 Log10 CFU/mL
same,"Viable counts, Escherichia coli time kill study",[3]; time 0,5.68 Log10 CFU/mL
same,"Viable counts, Pseudomonas aeruginosa time kill study",[4]; 0.5 min,5.36 Log10 CFU/mL
same,"Viable counts, Pseudomonas aeruginosa time kill study",[4]; 1 min,5.52 Log10 CFU/mL
same,"Viable counts, Pseudomonas aeruginosa time kill study",[4]; 5 min,<3.52 Log10 CFU/mL
same,"Viable counts, Pseudomonas aeruginosa time kill study",[4]; time 0,5.52 Log10 CFU/mL
same,"Viable counts, Staphylococcus aureus time kill study",[5]; 0.5 min,6.39 Log10 CFU/mL
same,"Viable counts, Staphylococcus aureus time kill study",[5]; 1 min,6.35 Log10 CFU/mL
same,"Viable counts, Staphylococcus aureus time kill study",[5]; 5 min,6.17 Log10 CFU/mL
same,"Viable counts, Staphylococcus aureus time kill study",[5]; time 0,6.34 Log10 CFU/mL
same,MIC,"[6]; ATCC25922, Table 19 summary of Example 33 and Example 35, read-out: MIC",3130 µg/mL
same,MIC,"[6]; ATCC25922, n = 1, read-out: MIC E. coli",3130 µg/mL
same,MIC,"[6]; ATCC25922, n = 2, read-out: MIC E. coli",3130 µg/mL
same,MIC,"[7]; ATCC27853, Table 19 summary, read-out: MIC",6250 µg/mL
same,MIC,"[7]; ATCC27853, n = 1, read-out: MIC P. aeruginosa",6250 µg/mL
same,MIC,"[7]; ATCC27853, n = 2, read-out: MIC P. aeruginosa",6250 µg/mL
same,MIC,"[8]; ATCC90029, Table 19 summary, read-out: MIC",> 12500 µg/mL
same,MIC,"[8]; ATCC90029, n = 1, read-out: MIC Candida albicans",> 12500 µg/mL
same,MIC,"[8]; ATCC90029, n = 2, read-out: MIC Candida albicans",> 12500 µg/mL
same,melting point,,100 to 106 °C
same,Sol.,[9],51%
